In patent publication US12083178B2, “Anti-fibroblastic fluorochemical emulsion therapies” (priority 2010, dated 2024):

Test: Treatment of a dog with soft tissue sarcoma and lung metastasis by pulmonary aerosol administration
Format: in vivo, dog (Golden Retriever)
Details: agent aerosolized alone, without emulsion; general observation
Experimental: A 9 year old Golden Retriever with soft tissue sarcoma and extensive lung metastasis was treated with 9 mg/ml twice weekly for 10 weeks by pulmonary aerosol administration (FIG. 7A & FIG. 7B). […]

SMILES: Nc1ccn([C@@H]2O[C@H](CO)[C@@H](O)C2(F)F)c(=O)n1 [Gemcitabine, gemcitabine]
- necrosis in lung parenchyma and pleural metastasis: severe necrosis is always observed
